Read-outs that look alike come from different tables or passages of the source.
Experiment: Pharmacokinetics of rivaroxaban in rats after avitinib or gefitinib pretreatment
Format: in vivo, Sprague–Dawley (SD) rats
Conditions: male, Sprague-Dawley, rat, plasma; for AUC(0-t): read-out: AUC(0-t); for CL/F: read-out: CLz/F (converted); for Cmax: read-out: Cmax; for MRT last: read-out: MRT(0-t); for half-life: read-out: t1/2z (converted); for k el: read-out: λz (converted); for MRT inf: read-out: MRT(0-∞)
Description: Eighteen male Sprague–Dawley (SD) rats weighing 300 ± 20 g were provided by the Experimental Animal Center of Wenzhou Medical University (Wenzhou, China) and kept under controlled conditions at a temperature of 23 ± 2 °C, relative humidity of 50 ± 10%, and 12 h light–dark cycle. Eighteen male SD rats were randomly assigned to three groups: avitinib, gefitinib, and control, with six rats per group. Prior to the experiment, the rats were not administered any other medications and fasted for 12 h. The experimental procedures and protocols adhered to Animal Ethics standards and were approved by the Animal Care and Use Committee of Wenzhou Medical University (approval no. wydw2019–650). All rats were anesthetized with sodium pentobarbital (40mg/kg, i.p) to relieve pain. The rats were killed through cervical dislocation.
Prior to the experiment in vivo, the six rats in the avitinib group were administered 30 mg/kg avitinib and 0.5% sodium carboxymethyl cellulose (CMC-Na) solution by gavage daily for 7 d. […] The supernatant was collected and stored at −80 °C. After thawing, 50 μL of plasma was extracted; 100 μL of acetonitrile solution containing midazolam (200 ng/mL) was then added to induce protein precipitation. After vortexing for 30 s and centrifuging at 13,000 rpm for 5 min, the […].
All assays were performed in triplicate, and the results are expressed as mean ± standard deviation. DAS software v. […] SPSS v. 25.0 (IBM, NY, USA) was used for data processing. Student’s t-tests were used to detect differences between groups. Differences with p < 0.05 were considered statistically significant.

[1] = po, 10 mg/kg, avitinib group, Mean
[2] = po, 10 mg/kg, avitinib group, single rats No1-No6
[3] = po, 10 mg/kg, gefitinib group, Mean
[4] = po, 10 mg/kg, gefitinib group, single rats No1-No6

concentration at 12 h (oral, rivaroxaban ng/ml mean, 吉非替尼 (gefitinib) group, mean of rats 7-12, time 12): 1640 ng/mL
concentration at 24 h (oral, rivaroxaban ng/ml mean, 艾维替尼 (avitinib) group, mean (one rat only), time 24): 14.8 ng/mL
concentration at 5 min (oral, rivaroxaban ng/ml mean, 艾维替尼 (avitinib) group, mean of rats 1-6, time 0.0833): 284 ng/mL
concentration at 0.25 h (oral, rivaroxaban ng/ml mean, 艾维替尼 (avitinib) group, mean of rats 1-6, time 0.25): 588 ng/mL
concentration at 0.5 h (oral, rivaroxaban ng/ml mean, 艾维替尼 (avitinib) group, mean of rats 1-6, time 0.5): 1090 ng/mL
concentration at 1 h (oral, rivaroxaban ng/ml mean, 艾维替尼 (avitinib) group, mean of rats 1-6, time 1): 1730 ng/mL
concentration at 2 h (oral, rivaroxaban ng/ml mean, 艾维替尼 (avitinib) group, mean of rats 1-6, time 2): 1650 ng/mL
concentration at 3 h (oral, rivaroxaban ng/ml mean, 艾维替尼 (avitinib) group, mean of rats 1-6, time 3): 1390 ng/mL
concentration at 4 h (oral, rivaroxaban ng/ml mean, 艾维替尼 (avitinib) group, mean of rats 1-6, time 4): 1010 ng/mL
concentration at 6 h (oral, rivaroxaban ng/ml mean, 艾维替尼 (avitinib) group, mean of rats 1-6, time 6): 538 ng/mL
concentration at 8 h (oral, rivaroxaban ng/ml mean, 艾维替尼 (avitinib) group, mean of rats 1-6, time 8): 448 ng/mL
concentration at 12 h (oral, rivaroxaban ng/ml mean, 艾维替尼 (avitinib) group, mean of rats 1-6, time 12): 80.9 ng/mL
concentration at 0.25 h (oral, rivaroxaban ng/ml, 吉非替尼 (gefitinib) group, individual rats 7-12, time 0.25): 1690 ng/mL
concentration at 0.5 h (oral, rivaroxaban ng/ml, 吉非替尼 (gefitinib) group, individual rats 7-12, time 0.5): 3820 ng/mL
concentration at 1 h (oral, rivaroxaban ng/ml, 吉非替尼 (gefitinib) group, individual rats 7-12, time 1): 5910 ng/mL
concentration at 3 h (oral, rivaroxaban ng/ml, 吉非替尼 (gefitinib) group, individual rats 7-12, time 3): 9510 ng/mL
concentration at 4 h (oral, rivaroxaban ng/ml, 吉非替尼 (gefitinib) group, individual rats 7-12, time 4): 11300 ng/mL
concentration at 6 h (oral, rivaroxaban ng/ml, 吉非替尼 (gefitinib) group, individual rats 7-12, time 6): 3980 ng/mL
concentration at 8 h (oral, rivaroxaban ng/ml, 吉非替尼 (gefitinib) group, individual rats 7-12, time 8): 3270 ng/mL
concentration at 5 min (oral, rivaroxaban ng/ml, 艾维替尼 (avitinib) group, individual rats 1-6, time 0.0833): 237 ng/mL
concentration at 24 h (oral, rivaroxaban ng/ml, 艾维替尼 (avitinib) group, individual rats 1-6, time 24): 14.8 ng/mL
AUC(0-inf) [1]: 9350 ng·h/mL
Tmax [1]: 1.33 h
AUC(0-t) [1]: 9000 ng·h/mL
CL/F [1]: 19.7 mL/min/kg
Cmax [1]: 1810 ng/mL
MRT last [1]: 3.79 h
half-life [1]: 2.2 h
k el [1]: 0.000104 s⁻¹
Tmax [2]: 1 h
MRT last [2]: 3.83 h
MRT inf [2]: 2.87 h
AUC(0-inf) [3]: 76000 ng·h/mL
Tmax [3]: 3.17 h
AUC(0-t) [3]: 58000 ng·h/mL
CL/F [3]: 2.32 mL/min/kg
Cmax [3]: 8310 ng/mL
MRT last [3]: 4.9 h
MRT inf [3]: 8.23 h
Vd/F (po, 10 mg/kg, gefitinib group, Mean, read-out: Vz/F): 0.867 L/kg
half-life [3]: 4.81 h
k el [3]: 5.17e-05 s⁻¹
AUC(0-inf) [4]: 109000 ng·h/mL
AUC(0-t) [4]: 62400 ng·h/mL
CL/F [4]: 1.53 mL/min/kg
Cmax [4]: 6780 ng/mL
SMILES: O=C(NC[C@H]1CN(c2ccc(N3CCOCC3=O)cc2)C(=O)O1)c1ccc(Cl)s1 [rivaroxaban, Rivaroxaban]

Reference: publication PMC12133000 (PLOS One, 2025)
